In patent US20230210735A1, “PREVENTION, REDUCTION, OR AMELIORATION OF OLD PERSON SMELL” (Firmenich SA, priority 2020, published 2023):

Experiments:
[1] = POV reduction in model citrus perfume (mixed citrus oil in 90/10 v/v ethanol/water); details: for % POV Reduction: model citrus perfume, vs untreated sample
[2] = Aldehyde and ketone reaction products by HPLC with DNPH derivatization in a soap formulation; details: treated vs untreated soap, peak area
Protocol: The extent of rancidity in the soap formulation tested was determined by measuring the content of aldehyde and ketone reaction products of the soap oils present. DNPH derivatives of aldehydes/ketone products in soap and treated soap were synthesized as follows:
0.1000 g of a soap formulation, either treated or untreated with DiMeC10A-PhPA were separately measured and diluted to 12 mL by the addition of propan-2-ol. 1 mL of this prepared diluted mixture was added to 1 mL of diluted DNPH solution which was prepared separately by mixing DNPH (3 g/L) and 3% HCL and diluted into 12 mL by the addition of propan-2-ol. The reaction vial was stirred and kept at 40C for 1 hr to accelerate derivatization reaction. Then it was cooled to room temperature and neutralized with 20% triethylamine and centrifuged at 5000 rpm for 5 min. The sample was then injected into the HPLC column.

[3] = POV by titration in formulated ranch salad dressing
Excerpt: Blank Samples: In all of the experiments below, an Untreated Oil (Blank) sample was maintained. The Blank was always packaged, stored, handled, and sampled in exactly the same manner as the Treated Sample, excepting the addition of the 2-oxoacid salt. In this way, the effect of the atmospheric oxygen in the headspace volume would be similar. For example, the ratio of the headspace volume to the volume of oil, and the area of contact between the headspace and the oil surface, would be the same for Treated and Untreated samples.
Into 30 mL glass vial was placed 15 g of a commercial salad dressing that had been stored in the lab at room temperature for an unknown but extended period after opening. To this vial, 0.4002 g of PhPA-DiMeC 10A was added and mixed well. The mixture was allowed to stand on the bench top under ambient laboratory light at room temperature. Periodically, measurements were recorded of the POV by titration, rancid-smelling aldehydes by HPLC with DNPH derivatization (see method above), and sensory evaluation.

SMILES: CN(C)CCO.CN(C)CCO.O=C(O)CCC(=O)C(=O)O [AKG DiDeanol]
- POV Treated Perfume ([1]; […] (24 hours), 1.0% w/v in model perfume): 0.0 mmol/L

SMILES: CCCCCCCCCCN(C)C.O=C(O)C(=O)Cc1ccccc1 [DiMeC10A-PhPA]
- 2-nonenal % reduction [2]: 52.4%
- decanal % reduction [2]: 55.8%
- heptanal % reduction [2]: 60%
- hexanal % reduction [2]: 66.7%
- nonanal % reduction [2]: 79%
- octanal % reduction [2]: 72.3%
- retention time 22.9 % reduction [2]: 51.3%
- retention time 27.7 % reduction [2]: 72.7%
- retention time 29.8 % reduction [2]: 70.5%
- retention time 30.6 % reduction [2]: 65.5%
- retention time 31.05 % reduction [2]: 68.1%
- retention time […] reduction [2]: 63.3%
- % of reduction in POV ([3]; 50 mins since addition): 0%
- % of reduction in POV ([3]; 6 hrs since addition): 53%
- % of reduction in POV ([3]; 26 hrs since addition): 62%

SMILES: CCC(CC)(C(=O)[O-])C(=O)C(=O)O.[Na+] [Diethyloxaloacetate, Sodium Salt]
- % POV Reduction ([1]; 165 Minutes after addition of treating compound): 36.9%
- % POV Reduction ([1]; 24 hours after addition of treating compound): 92.7%
